Measurements from patent US10525046B2 (ACADIA Pharmaceuticals Inc., priority 2003, dated 2020).

Legend:
human 5HT2A receptors = human 5HT2A receptors (Homo sapiens, UniProt P28223)
human D2 receptors [1] = biological target: T1, human D2 receptors (Homo sapiens, UniProt P14416); experiment: cell-based
[2] = tested on: hyperactivity induced by d-amphetamine; experiment: Amphetamine induced hyperactivity; assay type: in vivo; conditions: mice
[3] = tested on: hyperactivity induced by MK-801 (dizocilpine); experiment: MK-801 induced hyperactivity; assay type: in vivo, rats
Description: (§1) . In FIG. 2A and 2B, asterisks indicate statistical significance (p<0.05) compared to respective vehicle control. […]

spontaneous locomotion = experiment: Spontaneous locomotion; assay type: in vivo; conditions: s.c.; rats (FIG. 2A)
Description: as §1

[4] = tested on: levodopa-associated dyskinesias and motor response fluctuations; experiment: Double blind, placebo controlled study in parkinsonian patients; assay type: in vivo; conditions: Patient Group II
Description: […]. […] […]. The compound of formula (I) is administered once daily for four weeks, with the dose escalating once each week. Assessments are made on the first day of each dose escalation.
The study is conducted on an […].
Patients who participate in the study have particular characteristics. The patients are between 30 and 80 years of age, inclusively. The patients had been diagnosed with idiopathic Parkinson's disease based on the presence of a characteristic clinical history and neurological findings.
The sample size is calculated for the primary endpoint: the Unified Parkinson's Disease Rating Scale (UPDRS) part III motor examination. […]. […] In this phase 2 study we will accept a two-sided alpha at a 0.05 significance level. Four patients will be added for the placebo group, totaling 21 subjects enrolled in the study.
Patients enter the levodopa infusion optimal rate determination (dose finding) portion of the study as soon as all prohibited medication has been withdrawn for at least four weeks.
Intravenous infusion of levodopa is conducted in an in-patient ward. […]. During the first and second days of optimal rate determination, two baseline UPDRS ratings are performed prior to levodopa infusion. […] Dyskinesia severity is similar to that experienced with each patient's usual therapeutic regimen. Levodopa will be administered by means of an indwelling intravenous catheter. The initial infusion rate of levodopa will not exceed 80 mg/hr.
Levodopa infusions will ordinarily last up to 8 hours, but may be continued uninterrupted for several days or be repeated on other days to obtain reliable assessment of motor function. The peripheral decarboxylase inhibitor carbidopa (50 mg, given every 3 hours) is administered orally starting at least one hour prior to intravenous administration of levodopa and continuing until levodopa effects have worn off. […]
Throughout the study, patients are evaluated weekly for drug safety and tolerability during their inpatient admission and two weeks after treatment for an outpatient follow-up visit. […]

[5] = tested on: remaining monoaminergic receptor subtypes; experiment: Intrinsic activity at remaining monoaminergic receptor subtypes
[6] = tested on: L-dopa induced dyskinesias; experiment: L-dopa induced dyskinesia in MPTP monkeys; conditions: s.c.; MPTP dyskinetic primates; dyskinetic movements scored as percentage of placebo (FIG. 3)
Description: The use of 1-methyl-4-phenyl-1,2,3,6-tetrahydropyrilidine (MPTP) to induce parkinsonism in monkeys, coupled with prolonged administration of L-dopa induces severe dyskinesias.

[7] = refractory schizophrenic patients; cited from earlier work
human D2 receptors [8] = biological target: T1, human D2 receptors; conditions: R-SAT agonist; short form of the D2 receptor; +/− standard deviation of three to eight determinations

T1 sequence (P14416 1-414 isoform P14416-2): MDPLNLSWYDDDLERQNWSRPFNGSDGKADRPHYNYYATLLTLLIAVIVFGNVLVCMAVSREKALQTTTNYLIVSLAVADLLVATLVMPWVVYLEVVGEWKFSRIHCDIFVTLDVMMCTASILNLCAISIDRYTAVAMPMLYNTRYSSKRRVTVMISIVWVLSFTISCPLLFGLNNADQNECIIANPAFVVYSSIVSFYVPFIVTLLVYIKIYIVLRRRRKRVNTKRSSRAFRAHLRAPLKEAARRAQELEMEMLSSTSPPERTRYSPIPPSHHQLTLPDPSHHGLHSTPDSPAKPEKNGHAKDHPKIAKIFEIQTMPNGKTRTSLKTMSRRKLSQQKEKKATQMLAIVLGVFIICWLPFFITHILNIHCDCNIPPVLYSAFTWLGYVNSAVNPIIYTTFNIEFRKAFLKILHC
human 5HT2A receptors, sequence (P28223 whole entry): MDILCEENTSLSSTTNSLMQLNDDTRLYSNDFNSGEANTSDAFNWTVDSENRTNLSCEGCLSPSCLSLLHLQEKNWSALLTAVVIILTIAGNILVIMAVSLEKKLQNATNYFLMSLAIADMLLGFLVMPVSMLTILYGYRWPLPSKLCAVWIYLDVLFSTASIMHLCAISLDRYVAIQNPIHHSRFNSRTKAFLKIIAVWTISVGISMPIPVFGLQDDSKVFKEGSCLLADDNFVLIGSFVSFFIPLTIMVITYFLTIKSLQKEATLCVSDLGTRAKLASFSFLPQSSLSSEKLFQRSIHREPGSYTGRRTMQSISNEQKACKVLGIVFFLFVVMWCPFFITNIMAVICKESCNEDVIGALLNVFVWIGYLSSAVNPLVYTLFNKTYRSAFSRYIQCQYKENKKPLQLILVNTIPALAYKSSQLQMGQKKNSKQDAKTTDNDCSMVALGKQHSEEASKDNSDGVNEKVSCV

## NCCc1ccc(O)c(O)c1 [Dopamine]
Human 5HT2A receptors; R-SAT agonist, reference full agonist serotonin
  Potency against serotonin 5-HT2A receptor (FIG. 1B): no response

## CC(C)C[C@H]1C(=O)N2CCC[C@H]2[C@]2(O)O[C@](NC(=O)[C@@H]3C=C4c5cccc6[nH]c(Br)c(c56)C[C@H]4N(C)C3)(C(C)C)C(=O)N12 [Bromocriptine]
Human D2 receptors [1]
  EC50: 0.43 nM

## O=C(CCCN1CCC(O)(c2ccc(Cl)cc2)CC1)c1ccc(F)cc1 [haloperidol, reference compound]
[2]; haloperidol s.c. with 10.0 mg/kg P.O. compound of formula (I)
  minimally significant dose reducing amphetamine hyperactivity, in combination: 0.03 mg/kg
[2]; s.c., 3.0 mg/kg I.P. d-amphetamine
  minimally significant dose reducing amphetamine hyperactivity, alone: 0.1 mg/kg

## CC(C)COc1ccc(CNC(=O)N(Cc2ccc(F)cc2)C2CCN(C)CC2)cc1 [compound of formula (I), N-(1-methylpiperidin-4-yl)-N-(4-flourophenylmethyl)-N′-(4-(2-methylpropyloxy)phenylmethyl)carbamide]
[3]; i.p. administration, 1 mg/kg
  effect on MK-801 hyperactivity: attenuated MK-801 hyperactivity
[3]; p.o., rats (FIG. 2B)
  minimum effective dose attenuating MK-801 hyperactivity: 10 mg/kg
[3]; s.c., rats (FIG. 2A)
  minimum effective dose attenuating MK-801 hyperactivity: 1 mg/kg
Spontaneous locomotion
  doses reducing spontaneous locomotion: ≥ 3 mg/kg
[4]; oral
  effect on the beneficial effects of levodopa on parkinsonian symptoms: potentiates the benefical effects of levodopa on parkinsonian symptoms
[4]; oral once daily, 30 to 300 mg escalating weekly
  levodopa-associated dyskinesias and motor response fluctuations: show a reducing in levodopa-associated dyskinesias and motor response fluctuations
[4]; oral, 30 to 300 mg
  tolerability: tolerate the compound of formula (I) at all doses administered
[2]; 10.0 mg/kg P.O. and below, 3.0 mg/kg I.P. d-amphetamine
  effect on amphetamine hyperactivity, administered alone: did not reduce hyperactivity
[2]; 10.0 mg/kg P.O. compound of formula (I) combined with s.c. haloperidol
  amphetamine hyperactivity with the combination: completely reversed
[5]
  intrinsic activity at remaining monoaminergic receptor subtypes: lacks intrinsic activity
[6]
  effect on L-dopa induced dyskinesias: significantly diminish L-dopa induced dyskinesias in a dose dependent manner

## CN1CCN(C2=Nc3cc(Cl)ccc3Nc3ccccc32)CC1 [Clozapine]
[7]
  average serum levels associated with therapeutic response: ≥ 250 ng/mL

## CCCN(CCC)CCc1cccc2c1CC(=O)N2 [Ropinirole]
Human D2 receptors [8]
  Dopamine D2, —Log (EC50): 8.19 +/− 0.58
Human 5HT2A receptors
  Serotonin 2A, —Log (EC50): 6.85 +/− 0.77
